Reference: the supplement of paper PMC11451515

Assays:
Details in all cases: 48 h
SEM cells [1] = experiment: AUC of viability dose-response curve (% viability x log10 dose units); higher = less sensitive
Summary of the method: (§1)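 Leukemia cells adapted to each medium were seeded in 1536-well plates (500 or 1000 cells/well). They were dosed with library compounds in DMSO at 11 threefold doses, 47 μM to 0.79 nM, for 48 h at 37°C. CellTiter-Glo One luminescence was normalised per plate to DMSO and cell-free wells. Area under the curve was integrated by trapezoidal rule over log10 doses on a four-parameter log-logistic fit; curves exceeding full viability were scaled and curves failing quality control removed.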

NOMO1 [2] = experiment: as above
Summary of the method: as §1

P12-Ichikawa [3] = experiment: as above
Summary of the method: as §1

SEM cells [4] = experiment: cell viability relative to DMSO control; higher = less cytotoxic
Summary of the method: (§2)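 Leukemia cells (NOMO1 or SEM, 500 cells/well; P12-Ichikawa, 1000 cells/well) were seeded in 5 μl in 1536-well plates after at least four passages of adaptation to each medium. They received library compounds in DMSO by pin dosing, 11 threefold points from 47 μM to 0.79 nM. Luminescence with CellTiter-Glo One was read after 48 h at 37°C. Viability is stated per plate relative to DMSO wells, with cell-free wells as background.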

NOMO1 [5] = experiment: as above
Summary of the method: as §2

P12-Ichikawa [6] = experiment: as above
Summary of the method: as §2

O=C(N[C@H](CO)[C@H](O)c1ccc([N+](=O)[O-])cc1)C(Cl)Cl
AUC of viability dose-response curve
Details	NOMO1 [2]	P12-Ichikawa [3]	SEM cells [1]
HPLM + 10% dialyzed FBS	477	471	474
RPMI 5 mM glucose + 10% FBS	467	466	475
RPMI 5 mM glucose + 10% dialyzed FBS	467	462	475

SEM cells [4], HPLM + 10% dialyzed FBS
Details	cell viability [%]
0.000781 µM	115
0.00234 µM	119
0.00702 µM	125
0.0211 µM	121
0.0632 µM	126
0.19 µM	125
0.569 µM	128
1.71 µM	132
5.12 µM	128
15.4 µM	118
46.1 µM	113

Cc1cccc(Nc2ccncc2[S+](=O)([O-])NC(=O)NC(C)C)c1
AUC of viability dose-response curve
Details	NOMO1 [2]	P12-Ichikawa [3]	SEM cells [1]
HPLM + 10% dialyzed FBS	442	450	409
RPMI 5 mM glucose + 10% FBS	412	457	457
RPMI 5 mM glucose + 10% dialyzed FBS	415	425	459

cell viability [%]
Details	NOMO1 [5]	P12-Ichikawa [6]	SEM cells [4]
HPLM + 10% dialyzed FBS, 0.000781 µM	105	102	80.2
HPLM + 10% dialyzed FBS, 0.00234 µM	103	97.6	82.6
HPLM + 10% dialyzed FBS, 0.00702 µM	100	100	88
HPLM + 10% dialyzed FBS, 0.0211 µM	85.6	93.8	92.4
HPLM + 10% dialyzed FBS, 0.0632 µM	112	101	85.7
HPLM + 10% dialyzed FBS, 0.19 µM	105	96.7	95.1
HPLM + 10% dialyzed FBS, 0.569 µM	103	93	98.6
HPLM + 10% dialyzed FBS, 1.71 µM	87.3	90	85.6
HPLM + 10% dialyzed FBS, 5.12 µM	80.9	91.3	75.5
HPLM + 10% dialyzed FBS, 15.4 µM	89.3	85.8	84.4
HPLM + 10% dialyzed FBS, 46.1 µM	56	83.1	72.3
RPMI 5 mM glucose + 10% FBS, 0.000781 µM	95.6	94.9	103
RPMI 5 mM glucose + 10% FBS, 0.00234 µM	89.6	95.5	94.6
RPMI 5 mM glucose + 10% FBS, 0.00702 µM	96.4	95.4	83.8
RPMI 5 mM glucose + 10% FBS, 0.0211 µM	88.9	94.2	102
RPMI 5 mM glucose + 10% FBS, 0.0632 µM	83	104	96.2
RPMI 5 mM glucose + 10% FBS, 0.19 µM	84.8	104	97.9
RPMI 5 mM glucose + 10% FBS, 0.569 µM	89.4	98.2	111
RPMI 5 mM glucose + 10% FBS, 1.71 µM	89.1	94.1	87.7
RPMI 5 mM glucose + 10% FBS, 5.12 µM	79.2	96.8	90.4
RPMI 5 mM glucose + 10% FBS, 15.4 µM	82.3	86.4	95.3
RPMI 5 mM glucose + 10% FBS, 46.1 µM	72.4	86.6	88.5
RPMI 5 mM glucose + 10% dialyzed FBS, 0.000781 µM	89.1	86.1	89.7
RPMI 5 mM glucose + 10% dialyzed FBS, 0.00234 µM	91.4	89.3	104
RPMI 5 mM glucose + 10% dialyzed FBS, 0.00702 µM	81.1	93.1	110
RPMI 5 mM glucose + 10% dialyzed FBS, 0.0211 µM	94.1	90	94.4
RPMI 5 mM glucose + 10% dialyzed FBS, 0.0632 µM	93.6	91.9	106
RPMI 5 mM glucose + 10% dialyzed FBS, 0.19 µM	92.6	97.2	111
RPMI 5 mM glucose + 10% dialyzed FBS, 0.569 µM	85.5	90	101
RPMI 5 mM glucose + 10% dialyzed FBS, 1.71 µM	89.3	87.3	95.7
RPMI 5 mM glucose + 10% dialyzed FBS, 5.12 µM	83.5	88	83.8
RPMI 5 mM glucose + 10% dialyzed FBS, 15.4 µM	81	85.5	101
RPMI 5 mM glucose + 10% dialyzed FBS, 46.1 µM	65.8	76.1	84.5

COC1=CC=C2[C@H]3CC[C@]4(C)[C@H](CC[C@H]4[C@@H]3CCC2=C1)NCCCCCCN5C(=O)\C=C/C5=O
AUC of viability dose-response curve
Details	NOMO1 [2]	P12-Ichikawa [3]	SEM cells [1]
HPLM + 10% dialyzed FBS	434	456	472
RPMI 5 mM glucose + 10% FBS	444	448	459
RPMI 5 mM glucose + 10% dialyzed FBS	462	444	408

CCCCCCCCCCCCCC(=O)N[C@H](CO)[C@H](O)c1ccc([N+](=O)[O-])cc1
AUC of viability dose-response curve
Details	NOMO1 [2]	P12-Ichikawa [3]	SEM cells [1]
HPLM + 10% dialyzed FBS	342	369	296
RPMI 5 mM glucose + 10% FBS	323	328	276
RPMI 5 mM glucose + 10% dialyzed FBS	327	318	280

cell viability [%]
Details	NOMO1 [5]	P12-Ichikawa [6]	SEM cells [4]
HPLM + 10% dialyzed FBS, 0.000781 µM	92.5	99.4	97.4
HPLM + 10% dialyzed FBS, 0.00234 µM	98.8	90.6	81.4
HPLM + 10% dialyzed FBS, 0.00702 µM	99.1	100	89.5
HPLM + 10% dialyzed FBS, 0.0211 µM	105	104	95.4
HPLM + 10% dialyzed FBS, 0.0632 µM	105	102	98.9
HPLM + 10% dialyzed FBS, 0.19 µM	90.8	102	65.1
HPLM + 10% dialyzed FBS, 0.569 µM	108	105	79.7
HPLM + 10% dialyzed FBS, 1.71 µM	49.9	79.7	39.8
HPLM + 10% dialyzed FBS, 5.12 µM	16.8	40.3	13.8
HPLM + 10% dialyzed FBS, 15.4 µM	3.54	2.44	3.54
HPLM + 10% dialyzed FBS, 46.1 µM	2.02	1.98	2.38
RPMI 5 mM glucose + 10% FBS, 0.000781 µM	91.2	96.9	99.6
RPMI 5 mM glucose + 10% FBS, 0.00234 µM	82.8	94.2	76.1
RPMI 5 mM glucose + 10% FBS, 0.00702 µM	99.6	95.5	89.1
RPMI 5 mM glucose + 10% FBS, 0.0211 µM	90.2	92.7	103
RPMI 5 mM glucose + 10% FBS, 0.0632 µM	98.2	102	95.5
RPMI 5 mM glucose + 10% FBS, 0.19 µM	91.3	84.9	55.4
RPMI 5 mM glucose + 10% FBS, 0.569 µM	93	89.1	66.5
RPMI 5 mM glucose + 10% FBS, 1.71 µM	51	55.1	25.1
RPMI 5 mM glucose + 10% FBS, 5.12 µM	21.5	21.1	9.49
RPMI 5 mM glucose + 10% FBS, 15.4 µM	3.33	3.47	3.9
RPMI 5 mM glucose + 10% FBS, 46.1 µM	2.43	1.51	2.41
RPMI 5 mM glucose + 10% dialyzed FBS, 0.000781 µM	83.2	89.4	87.3
RPMI 5 mM glucose + 10% dialyzed FBS, 0.00234 µM	95	81.5	81.9
RPMI 5 mM glucose + 10% dialyzed FBS, 0.00702 µM	95.7	90.9	85.2
RPMI 5 mM glucose + 10% dialyzed FBS, 0.0211 µM	90.6	94	94.3
RPMI 5 mM glucose + 10% dialyzed FBS, 0.0632 µM	92.2	94.8	93.1
RPMI 5 mM glucose + 10% dialyzed FBS, 0.19 µM	93	85.8	55.2
RPMI 5 mM glucose + 10% dialyzed FBS, 0.569 µM	94.1	93.4	83
RPMI 5 mM glucose + 10% dialyzed FBS, 1.71 µM	59.4	52	36
RPMI 5 mM glucose + 10% dialyzed FBS, 5.12 µM	23.2	24.6	8.3
RPMI 5 mM glucose + 10% dialyzed FBS, 15.4 µM	4.12	4.09	4.49
RPMI 5 mM glucose + 10% dialyzed FBS, 46.1 µM	2.14	2.4	2.85
